According to PubChem BioAssay (NCI):
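Grown in 96-well plates, cells were treated for 48 hours with each compound at five concentrations. Insufficient inhibition: endpoint recorded as highest concentration tested. Abbreviation: GI50, concentration required for 50% inhibition of growth. TGI: concentration producing complete growth inhibition.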

Assays:
Experiment in all cases: growth of human tumour cells (NCI), 48 h
CAKI-1 renal = test system: CAKI-1 renal
HCT-116 colon = test system: HCT-116 colon
HOP-62 NSCLC = test system: HOP-62 NSCLC
IGROV1 ovarian = test system: IGROV1 ovarian
OVCAR-3 ovarian = test system: OVCAR-3 ovarian
OVCAR-5 ovarian = test system: OVCAR-5 ovarian
SK-MEL-2 melanoma = test system: SK-MEL-2 melanoma
SK-MEL-28 melanoma = test system: SK-MEL-28 melanoma
SNB-75 CNS = test system: SNB-75 CNS
UACC-257 melanoma = test system: UACC-257 melanoma

Row | SMILES | GI50 (CAKI-1 renal) [µM] | TGI (CAKI-1 renal) [µM] | GI50 (HCT-116 colon) [µM] | TGI (HCT-116 colon) [µM] | GI50 (HOP-62 NSCLC) [µM] | TGI (HOP-62 NSCLC) [µM] | GI50 (IGROV1 ovarian) [µM] | TGI (IGROV1 ovarian) [µM] | GI50 (OVCAR-3 ovarian) [µM] | TGI (OVCAR-3 ovarian) [µM] | GI50 (OVCAR-5 ovarian) [µM] | TGI (OVCAR-5 ovarian) [µM] | GI50 (SK-MEL-2 melanoma) [µM] | TGI (SK-MEL-2 melanoma) [µM] | GI50 (SK-MEL-28 melanoma) [µM] | TGI (SK-MEL-28 melanoma) [µM] | GI50 (SNB-75 CNS) [µM] | TGI (SNB-75 CNS) [µM] | GI50 (UACC-257 melanoma) [µM] | TGI (UACC-257 melanoma) [µM]
1 | CCOC(=O)c1cc(-c2ccc([N+](=O)[O-])cc2)n(-c2ccc(C(=O)O)c(O)c2)c1C | 11.6 | 30.1 | 2.78 | 11.6 | 7.55 | 23.3 | 4.42 | 19.2 | 2.86 | 9.53 | 17.3 | 35.3 | 11.5 | 24.7 | 3.81 | 14.4 | 7.65 | 22.1 | 9.2 | 22
2 | OCCNCO |  | > 100 |  | > 100 |  | > 100 |  | > 100 |  | > 100 |  | > 100 |  | > 100 |  | > 100 |  | > 100 |  | > 100
3 | Cc1c(Cl)cccc1Nc1ncccc1C(=O)O | 59 | > 100 | 46.8 | > 100 | > 100 | > 100 | > 100 | > 100 | 39.8 | > 100 | > 100 | > 100 | > 100 | > 100 | > 100 | > 100 | > 100 | > 100 | > 100 | > 100
4 | N#Cc1cnn2ccn(C3OC(COC(=O)c4ccccc4)C(OC(=O)c4ccccc4)C3OC(=O)c3ccccc3)c12 (stereo not given) |  | 21.5 |  | > 21.5 |  | > 21.5 |  | > 21.5 |  | > 21.5 |  | > 21.5 |  | 0.843 |  | > 21.5 |  | 21.5 |  | > 21.5
5 | NNC(=O)c1cnn(-c2ccnc3c(C(F)(F)F)cccc23)c1N | > 100 | > 100 | > 100 | > 100 | > 100 | > 100 | > 100 | > 100 | > 100 | > 100 | > 100 | > 100 | > 100 | > 100 | > 100 | > 100 | 99.7 | > 100 | > 100 | > 100
6 | O=C1CSC(N2CCN(c3cccc(Cl)c3)CC2)=N1 | > 100 | > 100 | > 100 | > 100 | > 100 | > 100 | > 100 | > 100 | > 100 | > 100 | > 100 | > 100 | > 100 | > 100 | > 100 | > 100 | 84.9 | > 100 | > 100 | > 100
7 | Cc1cccc(C(C)(C)C)c1NC(=O)C(=O)Cc1nc2ccccc2s1 |  | > 100 |  | > 100 |  | > 100 |  | > 100 |  | > 100 |  | > 100 |  | > 100 |  | > 100 |  | > 100 |  | > 100
8 | COc1ccc(CNC(=O)COc2ccc(/C=N/Nc3nc4ccccc4s3)cc2)cc1 | 1.98 | 5.21 | 2.25 | 6.76 | 2.22 | 11.6 | 1.69 | 6.73 | 2.1 | 5.42 | 4.57 | > 100 | 3.84 | 16 | 4.35 | > 100 | 1.07 | 3.29 | 4.2 | > 100
9 | O=S(=O)(O)C(O)/C=C/c1ccccc1 (stereo not given) |  | > 100 |  | > 100 |  | > 100 |  | > 100 |  | > 100 |  | > 100 |  | > 100 |  | > 100 |  | > 100 |  | > 100
10 | O=C(O)Cc1c[nH]c2ccc(F)cc12 |  | > 100 |  | > 100 |  | > 100 |  | > 100 |  | > 100 |  | > 100 |  | > 100 |  | > 100 |  | > 100 |  | > 100
11 | COc1cc2c(NCCCCCCO[N+](=O)[O-])ncnc2c(OC)c1OC |  | 62.3 |  | 62.5 |  | 66.7 |  | > 84.4 |  | > 78 |  | > 92.7 |  | 53.9 |  | > 83 |  | 99.3 |  | 36.5
12 | O=[n+]1c(CBr)c(CBr)n([O-])c2ccccc21 | 12 | 24.5 | 3.94 | 14.5 | 17.8 | 37.5 | 10.5 | 31 | 1.79 | 3.25 | 14 | 27.1 | 15.3 | 29.6 | 14.6 | 28.1 | 10.6 | 47.6 | 13.6 | 27.6
